# Measured values: publication PMC10630452, “The tumor-enriched small molecule gambogic amide suppresses glioma by targeting WDR1-dependent cytoskeleton remodeling” (Signal Transduction and Targeted Therapy, 2023)
# How the values were obtained:
# [1] = biological target: T1, His-WD2-7 (WD2 to WD7 repeats of WDR1) (Homo sapiens, UniProt O75083); experiment: SPR analysis (Biacore 8 K); assay type: binding; conditions: immobilized His-WD2-7, 25 °C, 5% DMSO
# T1 construct: His; made in house; host or cells: Arctic-Express (E. coli)
# T1 sequence (O75083 48-306 limits assumed): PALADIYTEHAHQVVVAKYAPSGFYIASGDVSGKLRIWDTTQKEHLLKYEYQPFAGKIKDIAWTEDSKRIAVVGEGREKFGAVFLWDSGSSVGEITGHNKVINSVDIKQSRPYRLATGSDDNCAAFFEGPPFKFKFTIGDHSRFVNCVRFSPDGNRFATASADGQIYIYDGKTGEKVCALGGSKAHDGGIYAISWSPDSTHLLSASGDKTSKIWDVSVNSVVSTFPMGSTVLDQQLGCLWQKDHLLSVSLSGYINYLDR
# Method: The binding affinities of GA-amide for its target proteins GST-WDR1, GST, and His-WD2-7 were assayed by using the SPR-based Biacore 8 K instrument (GE Healthcare). The CM5 sensor chip was used to immobilize 15,000 RU of the target protein to the sensor surface by the standard amine coupling reaction at 25 °C in PBS running buffer. Gradient concentrations of GA-amide containing 5% DMSO were injected into the channels to evaluate the binding affinity. The dissociation constants (KD values) of the GA-amide–protein complexes were calculated with Biacore 8 K Evaluation Software.
# The pGEX4T-1 plasmid was used to express the GST-WDR1 and GST proteins, while the pET-28c plasmid was used to express the His-WD2-7 protein. Arctic-ExpressTM was used for the production of the GST-WDR1, GST and His-WD2-7 fusion proteins. The cultures were grown at 37 °C, and when the OD600 reached 0.5–0.8, the protein was expressed after 0.5 mM IPTG was added. After 4 h, the cells were collected and washed with cold PBS twice.
# For His-WD2-7 protein purification, cells were first lysed by sonication. WD2-7 was present the precipitate and solubilized as described above. Then, the protein was loaded onto a Balanced Ni-IDA-Sepharose Cl-6B column (Novagen) and washed with Ni-IDA Washing-Buffer (20 mM Tris-HCl, 20 mM imidazole, 0.15 M NaCl, pH 8.0). […]
# WDR1 = biological target: T2, WDR1 (Homo sapiens, UniProt O75083); experiment: Cellular thermal shift assay (CETSA) in T2-4 cells; assay type: cell-based; conditions: 3 µM, 1 h, 67°C–70°C
# T2 construct: GA-amide protected WDR1 at different temperature gradients in the CETSA in T2-4 cells; endogenous in cells; host or cells: T2-4 patient-derived glioma cells
# T2 sequence (O75083 whole entry): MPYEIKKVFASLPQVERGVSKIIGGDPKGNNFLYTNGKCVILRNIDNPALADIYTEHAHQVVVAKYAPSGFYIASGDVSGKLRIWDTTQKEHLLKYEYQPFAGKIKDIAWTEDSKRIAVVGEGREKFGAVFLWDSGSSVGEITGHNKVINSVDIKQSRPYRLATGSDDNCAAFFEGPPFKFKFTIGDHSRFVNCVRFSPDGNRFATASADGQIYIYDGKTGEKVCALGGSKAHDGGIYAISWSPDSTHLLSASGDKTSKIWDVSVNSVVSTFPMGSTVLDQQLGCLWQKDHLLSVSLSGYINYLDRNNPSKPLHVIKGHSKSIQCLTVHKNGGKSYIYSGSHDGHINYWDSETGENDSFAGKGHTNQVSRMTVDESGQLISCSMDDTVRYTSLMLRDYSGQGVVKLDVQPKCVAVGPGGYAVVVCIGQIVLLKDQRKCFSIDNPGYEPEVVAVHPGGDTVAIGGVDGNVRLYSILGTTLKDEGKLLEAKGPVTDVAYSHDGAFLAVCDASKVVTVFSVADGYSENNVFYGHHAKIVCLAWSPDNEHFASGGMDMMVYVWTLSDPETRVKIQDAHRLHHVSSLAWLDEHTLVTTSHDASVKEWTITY
# Method: The cellular thermal shift assay (CETSA) has been described previously. Briefly, cells were incubated with DMSO or 3 µM GA-amide for 1 h and washed with PBS three times. Then, the cells were suspended in 1 mL of PBS and divided into equal volumes, followed by heating for 3 min at the indicated temperatures. After heating, three snap freeze–thaw cycles were applied to lyse the cells, and western blotting was performed as previously described.
# PDCs and GSCs = experiment: Transwell cell invasion assay; assay type: cell-based; conditions: 0.1 μM and 0.3 μM, 48–72 h
# Method: First, cells were starved for 12 h. The top surface of the membrane in the upper transwell chamber was coated with Matrigel (dilution ratio, 1:100, Corning, USA) by incubation for 30 min. Cells were plated in the upper chamber with serum-free neurobasal medium containing the corresponding concentration of GA-amide, and 600 μL of neurobasal medium containing 10% FBS and the same concentration of GA-amide was added to the lower chamber for 24–72 h of culture. Next, the cells in the transwell chamber were fixed with 4% paraformaldehyde for 20 min. After noninvaded cells in the upper chamber were removed by wiping, the remaining cells were stained with 1% crystal violet staining solution for 20 min and washed with double-distilled water. Finally, cell invasion was evaluated by microscopy.
# [2] = system: primary brain tumor (H-RasV12 activated, p53 silenced); experiment: Transgenic mouse glioma model (pTomo-Ras-sip53 lentivirus); assay type: in vivo, C57BL/6 mice; conditions: 1 mg/kg i.v. daily for 11 days
# Method: Fig. 3 The inhibitory effects of GA-amide in glioma stem cell-derived mouse models and transgenic mouse models. a, b GSC2 cells were implanted s.c. into nude mice. Mice were treated with control (DMSO) (n = 7) or GA-amide (2 mg/kg) (n = 8) via i.p. injection once daily for 11 days, after which a photograph (a) was taken to show the tumor volume, and the tumor volume was calculated by a modified ellipsoid formula in (b). c, d GSC2 cells were implanted intracranially into nude mice. Mice were injected i.v. with control (n = 8) or 1 mg/kg GA-amide (n = 8) daily for 13 days, the Mantel‒Cox log–rank test was used for analysis, and the relative survival curves are shown in (c). The body weights are shown in (d). e In vivo efficacy studies of GA-amide using transgenic mouse models. Glioma was induced in transgenic C57BL/6 mice by injection of pTomo-Ras-sip53 lentivirus, and the strategy is shown. f, g MRI analysis was used to group mice into the control (n = 7) and GA-amide-treated groups (n = 8) before treatment. The statistical results are shown in (f), and representative MRI images are shown in (g). […]
# F-actin = F-actin staining and G-actin/F-actin assay in T2-4 cells; assay type: cell-based; conditions: 0.3 μM, 4 h, 8 h and 12 h
# Method: F-actin isolation was performed according to the instructions of the G-actin/F-actin assay (Cytoskeleton, Inc.). Briefly, cells were lysed in LAS2 buffer (Cytoskeleton, Inc.). The lysates were centrifuged (5 min at 1000 rpm) to pellet undisrupted cells, and then 100 µl of the supernatant was ultracentrifuged at 37 °C (100,000 × g) for 1 h to separate F-actin from soluble G-actin. The F-actin pellet was solubilized by incubation in 100 μL of F-actin depolymerization buffer for 1 h. The soluble F-actin and G-actin fractions were subsequently analyzed by immunoblotting with a mouse monoclonal anti-actin antibody (Cytoskeleton, Inc.).
# Representative images of three wells are shown, and the scale bar represents 500 μm. h The apoptosis assay was conducted on T2-4 cells treated with DMSO, GA-amide (0.3 μM), jas (50 nM), and jas (50 nM jas was pretreated for 12 hours) in combination with GA-amide (0.3 μM) for 4 hours. The data were presented as the mean ± SEM (n = 3) and analyzed using one-way ANOVA analysis. Statistical significance is denoted as *P <0.05, **P <0.01, and ***P <0.001.
structure (smiles),measurement,setting,value
"CC(C)=CCC[C@]1(C)C=Cc2c(O)c3c(c(CC=C(C)C)c2O1)O[C@]12C(=C[C@@H]4CC1C(C)(C)O[C@@]2(C/C=C(/C)C(N)=O)C4=O)C3=O [GA-amide, gambogic amide]",Kd,[1],46.7 µM
same,WDR1 thermal stabilization (western blot band),WDR1,the band persisted in the cells treated with GA-amide
same,number of invading cells (transwell),PDCs and GSCs,significant decrease in the number of invading PDCs and GSCs
same,Ki67 and CD133 expression in tumor sections,[2],lower expression of the proliferation marker Ki67
same,tumor size by MRI versus control,[2],significantly smaller compared to the control mice
same,F-actin content,F-actin,decreased content of F-actin at the cell edge
